Test results published in PMC10285260, “Processive kinetics in the three-step lanosterol 14α-demethylation reaction catalyzed by human cytochrome P450 51A1” (The Journal of Biological Chemistry, 2023).

Key:
[1] = target: T1, human P450 51A1 (Homo sapiens, UniProt Q16850); test: Inhibition of dihydrolanosterol 14-demethylation (oxidation to dihydro FF-MAS); format: biochemical; design: made in house; host or cells: Escherichia coli
T1 sequence (Q16850 1-509): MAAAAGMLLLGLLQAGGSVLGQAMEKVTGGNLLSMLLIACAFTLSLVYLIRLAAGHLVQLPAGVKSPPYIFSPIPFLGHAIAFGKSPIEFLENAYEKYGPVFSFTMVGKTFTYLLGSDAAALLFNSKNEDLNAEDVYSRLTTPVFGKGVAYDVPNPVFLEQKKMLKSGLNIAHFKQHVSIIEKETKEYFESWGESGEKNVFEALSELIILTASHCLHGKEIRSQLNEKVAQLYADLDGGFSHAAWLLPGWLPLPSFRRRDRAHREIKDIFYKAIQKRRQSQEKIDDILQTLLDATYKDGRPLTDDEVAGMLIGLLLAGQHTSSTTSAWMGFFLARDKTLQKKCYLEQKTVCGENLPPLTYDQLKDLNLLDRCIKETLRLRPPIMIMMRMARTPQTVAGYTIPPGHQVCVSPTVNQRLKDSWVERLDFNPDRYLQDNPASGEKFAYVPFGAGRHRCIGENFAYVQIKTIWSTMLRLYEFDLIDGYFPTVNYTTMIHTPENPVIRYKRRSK
Source text: Agnosterol (Fig. 2) is a common Δ^7,14 contaminant of commercial lanosterol preparations (Fig. S22) ([25], [36]). We also encountered this molecule and its derivatives, with its characteristic UV spectra derived from our synthesis beginning with 7-dehydrocholesterol (Figs. S1 and S17). The most likely entry point is the m-chloroperbenzoic acid epoxidation (Fig. S1, step 7) ([37]). […] The contaminant could be removed by preparative HPLC (C18, CH3CN, see Supporting Information).
epi-Dihydrolanosterol, which appears to be an obscure natural product ([32]), was recovered as a side product in one of the synthetic steps and shown to bind to human P450 51A1 tightly and be demethylated at a similar rate as the common β-hydroxy isomer (Figs 5B and 7A), behavior similar to that earlier reported for the yeast (Saccharomyces cerevisiae) enzyme ([34]). An H-bond between the sterol C3-OH and the main chain oxygen of a P450 51 residue preceding the beginning of the β1-4 strand is observed in four P450 51 structures in the Protein Data Bank: Trypanosoma brucei [3P99] ([48]), Trypanosoma cruzi [6FMO] ([49]), human [6UEZ] ([19]), plus a sterol-forming bacterium, Methylococcus capsulatus [7SNM] ([50]). Whether this interaction is replaced by another with epi-lanosterol is presently a point of conjecture and future research. […]

[2] = target: T1, human P450 51A1; test: Oxidation of dihydroagnosterol by human P450 51A1 (LC-UV); format: biochemical; design: made in house; host or cells: Escherichia coli
Description: The possibility existed that this molecule could be a substrate. […] However, on the basis of the UV and mass spectra and literature precedents ([38], [39]), we have assigned the structure as 4,4′-dimethylcholesta-7,9,14-trienol. The UV spectrum retains (Fig. 6) the detailed chromophore of agnosterol (Fig. S23) plus an additional transition at higher wavelength, as expected based on the UV spectrum of FF-MAS (Fig. S18).
Figure 6 Oxidation of dihydroagnosterol by human P450 51A1. The incubation included 0.1 μM P450 51A1 and 10 μM dihydroagnosterol and ran for 10 min at 37 °C in the absence and presence of NADPH. The products were extracted and analyzed by UPLC-UV and UPLC-MS. A, UPLC chromatogram (UV, 192 and 245 nm). B, mass spectrum [M+H-H2O]^+, calculated for C29H45, 393.3516; found, 393.3493 (−5.9 ppm) and assigned structure. C, UV spectrum (from tR 7.3 min peak of A). UPLC, ultra-performance liquid chromatography.

CC(C)CCCC(C)[C@H]1CC[C@@]2(C)C3=CCC4C(C)(C)[C@@H](O)CC[C@]4(C)C3=CC[C@]12C (stereo partly drawn) [dihydroagnosterol]
IC50 [1]: ≥ 10 µM | rate of disappearance relative to that of dihydrolanosterol [2]: one-half | rate of disappearance ([2]; 0.1 μM P450 51A1, 10 μM dihydroagnosterol, 37 °C): ~10 min⁻¹
